Article PMC5681660, “Reduced hepatitis B and D viral entry using clinically applied drugs as novel inhibitors of the bile acid transporter NTCP” (Scientific Reports, 2017)
Counter-ions that a name gives are not always drawn. Like-named read-outs stand apart in the source and are kept apart here.

How the values were obtained:
[1] = target: T1, human NTCP (Homo sapiens, UniProt Q14973); assay: Screening taurocholate uptake assay (96-well, [14C]taurocholate, 10 µM drug)
T1 sequence (Q14973 1-349): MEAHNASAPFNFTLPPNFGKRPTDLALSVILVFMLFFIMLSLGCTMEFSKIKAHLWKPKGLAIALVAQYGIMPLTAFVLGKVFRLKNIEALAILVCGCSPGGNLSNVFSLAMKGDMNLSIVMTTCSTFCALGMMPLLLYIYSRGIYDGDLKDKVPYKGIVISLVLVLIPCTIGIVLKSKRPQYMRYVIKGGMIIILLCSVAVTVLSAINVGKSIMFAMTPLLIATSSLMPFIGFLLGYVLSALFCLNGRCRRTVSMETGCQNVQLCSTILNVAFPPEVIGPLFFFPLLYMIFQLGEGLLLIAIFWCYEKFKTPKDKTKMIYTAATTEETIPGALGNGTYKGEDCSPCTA

[2] = target: T1, human NTCP; assay: Screening fluorescent competitive Myrcludex B-FITC binding assay (96-well, 10 µM drug)
[3] = Prestwick library screen, 10 µM drug, B-score of taurocholate uptake
[4] = combined ranking from functional and binding assay B-scores
[5] = Prestwick library screen, 10 µM drug, B-score of Myrcludex B-FITC binding
[6] = combined ranking from functional and binding screening assays
[7] = screen, 10 µM drug, taurocholate uptake
[8] = screen, 10 µM drug, Myrcludex B-FITC binding
[9] = Prestwick library screen, taurocholate uptake, 10 µM drug
[10] = ranking score beside the functional and binding assay B-scores of the screen
[11] = Prestwick library screen, Myrcludex B-FITC binding, 10 µM drug

COC(=O)N/N=C/c1c[n+]([O-])c2ccccc2[n+]1[O-] [Carbadox]
B-score functional assay [1, 3]: 0.663
Ranking score [1, 4]: 963.5
B-score binding assay [2, 5]: 0.674

CCCCOC(=O)c1ccc(N)cc1 [Butamben]
B-score functional assay [1, 3]: 0.768
Ranking score [1, 4]: 1050.86
B-score binding assay [2, 5]: 1.315

Cn1nnc2c(C(N)=O)ncn2c1=O [Temozolomide]
B-score functional assay [1, 3]: 0.533
Ranking score [1, 4]: 906.245
B-score binding assay [2, 5]: 0.415

NC(=O)c1cccnc1 [Nicotinamide]
B-score functional assay [1, 3]: 1.452
Ranking score [1, 4]: 911.172
B-score binding assay [2, 5]: 0.079

CCCCC(O)c1ccccc1 (stereo not drawn) [Fenipentol]
Ranking score [1, 6]: 460.361
B-score functional assay [1, 7]: -0.409
B-score binding assay [2, 8]: -0.138

Cl.c1cnc(N2CCN(Cc3ccc4c(c3)OCO4)CC2)nc1 [Piribedil hydrochloride]
B-score functional assay [1, 3]: 0.676
Ranking score [1, 4]: 974.49
B-score binding assay [2, 5]: 0.754

CC(=O)OCC(=O)[C@@]1(OC(C)=O)[C@@H](C)C[C@H]2[C@@H]3C[C@H](F)C4=CC(=O)C=C[C@]4(C)[C@@]3(F)[C@@H](O)C[C@@]21C [Diflorasone Diacetate]
Ranking score [1, 6]: 327.658
B-score functional assay [1, 7]: -0.194
B-score binding assay [2, 8]: -1.118

CC(C)NCC(O)c1ccc2ccccc2c1.Cl (stereo not drawn) [Pronethalol hydrochloride]
Ranking score [1, 6]: 409.31
B-score functional assay [1, 7]: -0.999
B-score binding assay [2, 8]: 0.008

CC1(C)[C@H](C(=O)O)N2C(=O)C[C@H]2S1(=O)=O [Sulbactam]
Ranking score [1, 6]: 399.332
B-score functional assay [1, 7]: 1.339
B-score binding assay [2, 8]: -1.629

Cc1nc2ccc(CN(C)c3ccc(C(=O)N[C@@H](CCC(=O)O)C(=O)O)s3)cc2c(=O)[nH]1 [Raltitrexed]
Ranking score [1, 6]: 413.367
B-score functional assay [1, 7]: -1.033
B-score binding assay [2, 8]: 0.04

c1ccc([C@H]2CN3CCSC3=N2)cc1 [Levamisole hydrochloride]
B-score functional assay [1, 3]: 0.335
Ranking score [1, 4]: 1002.84
B-score binding assay [2, 5]: 1.834

CNCCC=C1c2ccccc2CCc2ccccc21 [Nortriptyline hydrochloride]
B-score functional assay [1, 3]: 1.081
Ranking score [1, 4]: 1101.36
B-score binding assay [2, 5]: 1.407

N[C@@H]1C[C@H]1c1ccccc1 [Tranylcypromine hydrochloride]
B-score functional assay [1]: 0.857
Ranking score [1]: 1041.86
B-score binding assay [2]: 1.095

CC(C)c1cccc(C(C)C)c1O [Propofol]
B-score functional assay [1]: -4.147
Ranking score [1]: 144.551
B-score binding assay [2]: -0.036

CCN[C@@H](C)Cc1cccc(C(F)(F)F)c1 [Dexfenfluramine hydrochloride]
Ranking score [1, 6]: 401.597
B-score functional assay [1, 7]: -0.697
B-score binding assay [2, 8]: -0.169

COc1cc2nc(N3CCN(C(=O)C4COc5ccccc5O4)CC3)nc(N)c2cc1OC (stereo not drawn) [Doxazosin mesylate]
B-score functional assay [1]: -0.292
Ranking score [1]: 599.787
B-score binding assay [2]: 0.211

O=P1(NCCCl)OCCCN1CCCl (stereo not drawn) [Ifosfamide]
Ranking score [1, 6]: 334.739
B-score functional assay [1, 7]: 0.023
B-score binding assay [2, 8]: -1.438

CCOC(=O)[C@H](CCc1ccccc1)N[C@@H](C)C(=O)N1Cc2ccccc2C[C@H]1C(=O)O [Quinapril HCl]
B-score functional assay [1, 3]: 2.971
Ranking score [1, 4]: 1103.9
B-score binding assay [2, 5]: 0.741

NC(=O)c1cc[n+](CC2=C(C(=O)O)N3C(=O)[C@@H](NC(=O)[C@@H](c4ccccc4)S(=O)(=O)[O-])[C@H]3SC2)cc1 [Cefsulodin sodium salt]
B-score functional assay [1, 9]: 0.682
Ranking score [1, 10]: 669.358
B-score binding assay [2, 11]: -0.269

CC1CS(=O)(=O)CCN1/N=C/c1ccc([N+](=O)[O-])o1 (stereo not drawn) [Nifurtimox]
Ranking score [1, 6]: 381.366
B-score functional assay [1, 7]: -0.767
B-score binding assay [2, 8]: -0.222

CC(C)(C)NC(=O)[C@H]1CC[C@H]2[C@@H]3CC[C@H]4NC(=O)C=C[C@]4(C)[C@H]3CC[C@]12C [Finasteride]
Ranking score [1, 6]: 406.586
B-score functional assay [1, 7]: -1.623
B-score binding assay [2, 8]: 0.768

CC[C@@H](CO)NC(=O)[C@@H]1C=C2c3cccc4[nH]cc(c34)C[C@H]2N(C)C1 [Methylergometrine maleate]
B-score functional assay [1, 3]: 0.963
Ranking score [1, 4]: 1029.08
B-score binding assay [2, 5]: 0.851

CCC(=O)[C@@]1(C)[C@H](C)C[C@H]2[C@@H]3CCC4=CC(=O)C=C[C@]4(C)[C@H]3[C@@H](O)C[C@@]21C [Rimexolone]
Ranking score [1, 6]: 362.647
B-score functional assay [1, 7]: -0.597
B-score binding assay [2, 8]: -0.495

Cc1cc(-c2ccccc2)nnc1NCCN1CCOCC1 [Minaprine dihydrochloride]
B-score functional assay [1, 9]: 1.278
Ranking score [1, 10]: 814.509
B-score binding assay [2, 11]: -0.039

O=C(NCC(O)CO)c1c(I)c(C(=O)NCC(O)CO)c(I)c(N(CCO)C(=O)CO)c1I (stereo not drawn) [Ioversol]
B-score functional assay [1]: 1.843
Ranking score [1]: 1044.38
B-score binding assay [2]: 0.541

CCC(=O)O[C@H]1CC[C@H]2[C@@H]3CCC4=CC(=O)CC[C@]4(C)[C@H]3CC[C@]12C [Testosterone propionate]
B-score functional assay [1]: -0.451
Ranking score [1]: 567.732
B-score binding assay [2]: 0.252

OCc1cc(C(O)CNCCCCCCOCCCCc2ccccc2)ccc1O (stereo not drawn) [Salmeterol]
Ranking score [1, 6]: 391.804
B-score functional assay [1, 7]: 0.004
B-score binding assay [2, 8]: -0.999

COC(=O)[C@H]1[C@H]2C[C@@H]3c4[nH]c5cc(OC)ccc5c4CCN3C[C@H]2C[C@@H](OC(=O)c2cc(OC)c(OC)c(OC)c2)[C@@H]1OC [Reserpine]
B-score functional assay [1, 9]: 0.519
Ranking score [1, 10]: 842.122
B-score binding assay [2, 11]: 0.147

CC/C(=C(\c1ccccc1)c1ccc(OCCN(C)C)cc1)c1ccccc1 [Tamoxifen citrate]
B-score functional assay [1, 9]: 0.142
Ranking score [1, 10]: 732.268
B-score binding assay [2, 11]: 0.04

CN(C)CCC=C1c2ccccc2C=Cc2ccccc21 [Cyclobenzaprine hydrochloride]
B-score functional assay [1, 9]: -0.009
Ranking score [1, 10]: 718.919
B-score binding assay [2, 11]: 0.264

CNC1(C)C2CCC(C2)C1(C)C (stereo not drawn) [Mecamylamine hydrochloride]
Ranking score [1, 6]: 340.338
B-score functional assay [1, 7]: -0.591
B-score binding assay [2, 8]: -0.663

c1ccc2c(c1)CCCC2C1=NCCN1 (stereo not drawn) [Tetrahydrozoline hydrochloride]
B-score functional assay [1, 3]: 0.112
Ranking score [1, 4]: 952.65
B-score binding assay [2, 5]: 1.943

CC(=O)Nc1c(I)c(NC(C)=O)c(I)c(C(=O)O)c1I.O.O [Diatrizoic acid dihydrate]
B-score functional assay [1, 9]: -0.248
Ranking score [1, 10]: 739.319
B-score binding assay [2, 11]: 1.833

CCCCC[C@H](O)/C=C/[C@H]1[C@H](O)CC(=O)[C@@H]1CCCCCCC(=O)O [Alprostadil]
B-score functional assay [1, 9]: 0.966
Ranking score [1, 10]: 841.475
B-score binding assay [2, 11]: 0.02

Deoxycorticosterone
Ranking score [1, 6]: 460.68
B-score functional assay [1, 7]: -0.349
B-score binding assay [2, 8]: -0.204

Nc1nc(=O)c2nc(CNc3ccc(C(=O)N[C@@H](CCC(=O)O)C(=O)O)cc3)cnc2[nH]1 [Folic acid]
Ranking score [1, 6]: 436.211
B-score functional assay [1, 7]: -0.57
B-score binding assay [2, 8]: -0.117

O=C(CCCCC(=O)Nc1c(I)cc(I)c(C(=O)O)c1I)Nc1c(I)cc(I)c(C(=O)O)c1I [Iodipamide]
B-score functional assay [1, 9]: 2.519
Ranking score [1, 10]: 831.882
B-score binding assay [2, 11]: -0.069

CC(C)(C)C(=O)OCOC(=O)[C@@H]1N2C(=O)[C@@H](/N=C/N3CCCCCC3)[C@H]2SC1(C)C [Pivmecillinam hydrochloride]
B-score functional assay [1, 9]: -0.103
Ranking score [1, 10]: 729.338
B-score binding assay [2, 11]: 0.838

CCOC(=O)[C@H](CCc1ccccc1)N[C@@H](C)C(=O)N1[C@H](C(=O)O)C[C@@H]2CCC[C@@H]21 [Ramipril]
B-score functional assay [1, 3]: 0.852
Ranking score [1, 4]: 1101.41
B-score binding assay [2, 5]: 1.901

CO[C@@]1(NC(=O)C2SC(=C(C(N)=O)C(=O)O)S2)C(=O)N2C(C(=O)O)=C(CSc3nnnn3C)CS[C@@H]21 (stereo partly drawn) [Cefotetan]
B-score functional assay [1, 9]: 4.862
Ranking score [1, 10]: 655.496
B-score binding assay [2, 11]: -0.646

O=C(O)c1cccnc1 [Niacin]
B-score functional assay [1, 9]: 0.004
Ranking score [1, 10]: 716.877
B-score binding assay [2, 11]: 0.206

OCCN(CCO)c1nc(N2CCCCC2)c2nc(N(CCO)CCO)nc(N3CCCCC3)c2n1 [Dipyridamole]
Ranking score [1, 6]: 317.643
B-score functional assay [1, 7]: -1.651
B-score binding assay [2, 8]: -0.011

NS(=O)(=O)c1cc2c(cc1C(F)(F)F)NCNS2(=O)=O [Hydroflumethiazide]
B-score functional assay [1, 3]: 0.664
Ranking score [1, 4]: 856.507
B-score binding assay [2, 5]: 0.137

Cl.Clc1ccc(C(OCCN2CCCCC2)c2ccccc2)cc1 (stereo not drawn) [Cloperastine hydrochloride]
B-score functional assay [1, 3]: 2.21
Ranking score [1, 4]: 1021.61
B-score binding assay [2, 5]: 0.356

CN[C@H]1CC[C@@H](c2ccc(Cl)c(Cl)c2)c2ccccc21 [Sertraline]
Ranking score [1, 6]: 426.035
B-score functional assay [1, 7]: 0.805
B-score binding assay [2, 8]: -1.357
